Source: ChEMBL document CHEMBL1201862, “PubChem BioAssay data set” (2004)
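Cultured in 96-well plates, cells were exposed to test compound for 48 hours across five concentrations. Here, GI50 denotes the concentration required for 50% inhibition of growth.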 Active and inactive are the calls of the source. Rule as the data show it: active = GI50 up to about 1.1 µM and inactive = higher.

Key:
Assay in all cases: NCI anticancer screen, dose series, 48 h
786-0 = tested on: 786-0
A498 = tested on: A498
A549 = tested on: A549
ACHN = tested on: ACHN
BT-549 = tested on: BT-549
CAKI-1 = tested on: CAKI-1
CCRF-CEM = tested on: CCRF-CEM
COLO 205 = tested on: COLO 205
DU-145 = tested on: DU-145
EKVX = tested on: EKVX
HCC 2998 = tested on: HCC 2998
HCT-116 = tested on: HCT-116
HCT-15 = tested on: HCT-15
HL-60 = tested on: HL-60
HOP-62 = tested on: HOP-62
HOP-92 = tested on: HOP-92
HT-29 = tested on: HT-29
Hs-578T = tested on: Hs-578T
IGROV-1 = tested on: IGROV-1
K562 = tested on: K562
KM12 = tested on: KM12
LOX IMVI = tested on: LOX IMVI
M14 = tested on: M14
MCF7 = tested on: MCF7
MDA-MB-231 = tested on: MDA-MB-231
MDA-MB-435 = tested on: MDA-MB-435
MDA-N = tested on: MDA-N
MOLT-4 = tested on: MOLT-4
Malme-3M = tested on: Malme-3M
NCI-H226 = tested on: NCI-H226
NCI-H23 = tested on: NCI-H23
NCI-H460 = tested on: NCI-H460
NCI-H522 = tested on: NCI-H522
NCI/ADR-RES = tested on: NCI/ADR-RES
OVCAR-3 = tested on: OVCAR-3
OVCAR-4 = tested on: OVCAR-4
OVCAR-5 = tested on: OVCAR-5
OVCAR-8 = tested on: OVCAR-8
PC-3 = tested on: PC-3
RPMI-8226 = tested on: RPMI-8226
RXF 393 = tested on: RXF 393
SF-268 = tested on: SF-268
SF-295 = tested on: SF-295
SF-539 = tested on: SF-539
SK-MEL-28 = tested on: SK-MEL-28
SK-MEL-2 = tested on: SK-MEL-2
SK-MEL-5 = tested on: SK-MEL-5
SK-OV-3 = tested on: SK-OV-3
SN12C = tested on: SN12C
SNB-19 = tested on: SNB-19
SNB-75 = tested on: SNB-75
SW-620 = tested on: SW-620
T47D = tested on: T47D
TK-10 = tested on: TK-10
U-251 = tested on: U-251
UACC-257 = tested on: UACC-257
UACC-62 = tested on: UACC-62
UO-31 = tested on: UO-31

SMILES: COc1ccc(-c2nc(N3CCCC3)no2)cc1
- GI50 (786-0): 36.3 µM (inactive)
- GI50 (A498): 31.6 µM (inactive)
- GI50 (A549): 38 µM (inactive)
- GI50 (ACHN): 35.8 µM (inactive)
- GI50 (BT-549): 43.3 µM (inactive)
- GI50 (CAKI-1): 51.6 µM (inactive)
- GI50 (CCRF-CEM): 20.7 µM (inactive)
- GI50 (COLO 205): > 100 µM (inactive)
- GI50 (DU-145): 43.2 µM (inactive)
- GI50 (EKVX): 25.9 µM (inactive)
- GI50 (HCC 2998): 73.5 µM (inactive)
- GI50 (HCT-116): > 91.8 µM (inactive)
- GI50 (HCT-15): 58.9 µM
- GI50 (HL-60): 1.5 µM (inactive)
- GI50 (HOP-62): 27.9 µM (inactive)
- GI50 (HOP-92): 48.4 µM (inactive)
- GI50 (HT-29): 54.7 µM (inactive)
- GI50 (Hs-578T): 24.9 µM (inactive)
- GI50 (IGROV-1): 18.9 µM (inactive)
- GI50 (K562): 60.3 µM (inactive)
- GI50 (KM12): 88.5 µM (inactive)
- GI50 (LOX IMVI): 33 µM (inactive)
- GI50 (M14): 81.3 µM (inactive)
- GI50 (MCF7): 43.2 µM (inactive)
- GI50 (MDA-MB-231): 50.1 µM (inactive)
- GI50 (MDA-MB-435): > 100 µM (inactive)
- GI50 (MDA-N): 67 µM (inactive)
- GI50 (MOLT-4): > 100 µM (inactive)
- GI50 (Malme-3M): 11.6 µM (inactive)
- GI50 (NCI-H226): 42.7 µM (inactive)
- GI50 (NCI-H23): 54.6 µM (inactive)
- GI50 (NCI-H460): 33 µM (inactive)
- GI50 (NCI-H522): 39.1 µM (inactive)
- GI50 (NCI/ADR-RES): 44.5 µM (inactive)
- GI50 (OVCAR-3): 72.8 µM (inactive)
- GI50 (OVCAR-4): 34 µM (inactive)
- GI50 (OVCAR-5): > 86.7 µM (inactive)
- GI50 (OVCAR-8): 34.5 µM (inactive)
- GI50 (PC-3): 41.6 µM (inactive)
- GI50 (RPMI-8226): 32.7 µM (inactive)
- GI50 (RXF 393): 22 µM (inactive)
- GI50 (SF-268): 53 µM (inactive)
- GI50 (SF-295): 21.2 µM (inactive)
- GI50 (SF-539): 24 µM (inactive)
- GI50 (SK-MEL-28): > 100 µM (inactive)
- GI50 (SK-MEL-2): 46.1 µM (inactive)
- GI50 (SK-MEL-5): 53.6 µM (inactive)
- GI50 (SK-OV-3): 58.9 µM (inactive)
- GI50 (SN12C): 74 µM (inactive)
- GI50 (SNB-19): 44.1 µM (inactive)
- GI50 (SNB-75): 34.1 µM (inactive)
- GI50 (SW-620): > 100 µM (inactive)
- GI50 (T47D): 26.5 µM (inactive)
- GI50 (TK-10): > 100 µM (inactive)
- GI50 (U-251): 86.3 µM (inactive)
- GI50 (UACC-257): > 100 µM (inactive)
- GI50 (UACC-62): 31 µM (inactive)
- GI50 (UO-31): 49.4 µM (inactive)

SMILES: C=C=C(CC(CC(=C)Br)(C(=O)OC)C(=O)OC)S(=O)(=O)c1ccccc1
- GI50 (786-0): 1.05 µM (active)
- GI50 (A498): 5.6 µM (inactive)
- GI50 (A549): 2.78 µM (inactive)
- GI50 (ACHN): 2.39 µM (inactive)
- GI50 (BT-549): 1.4 µM (inactive)
- GI50 (CAKI-1): 1.41 µM (inactive)
- GI50 (CCRF-CEM): 0.497 µM (active)
- GI50 (COLO 205): 1.84 µM (inactive)
- GI50 (DU-145): 1.6 µM (inactive)
- GI50 (EKVX): 2.82 µM (inactive)
- GI50 (HCC 2998): 2.58 µM (inactive)
- GI50 (HCT-116): 0.92 µM (active)
- GI50 (HCT-15): 1.51 µM
- GI50 (HL-60): 0.494 µM (active)
- GI50 (HOP-62): 5.21 µM (inactive)
- GI50 (HOP-92): 1.95 µM (inactive)
- GI50 (HT-29): 1.62 µM (inactive)
- GI50 (Hs-578T): 2.39 µM (inactive)
- GI50 (IGROV-1): 1.66 µM (inactive)
- GI50 (K562): 1.48 µM (inactive)
- GI50 (KM12): 2.29 µM (inactive)
- GI50 (LOX IMVI): 0.419 µM (active)
- GI50 (M14): 1.96 µM (inactive)
- GI50 (MCF7): 1.87 µM (inactive)
- GI50 (MDA-MB-231): 1.98 µM (inactive)
- GI50 (MDA-MB-435): 1.74 µM (inactive)
- GI50 (MDA-N): 2.44 µM (inactive)
- GI50 (MOLT-4): 1.91 µM (inactive)
- GI50 (Malme-3M): 1.91 µM (inactive)
- GI50 (NCI-H226): 6.12 µM (inactive)
- GI50 (NCI-H23): 2.05 µM (inactive)
- GI50 (NCI-H460): 5.86 µM (inactive)
- GI50 (NCI-H522): 0.556 µM (active)
- GI50 (NCI/ADR-RES): 2.26 µM (inactive)
- GI50 (OVCAR-3): 2.27 µM (inactive)
- GI50 (OVCAR-4): 8.89 µM (inactive)
- GI50 (OVCAR-5): 1.65 µM (inactive)
- GI50 (OVCAR-8): 1.29 µM (inactive)
- GI50 (PC-3): 1.73 µM (inactive)
- GI50 (RPMI-8226): 1.85 µM (inactive)
- GI50 (RXF 393): 1.83 µM (inactive)
- GI50 (SF-268): 2.37 µM (inactive)
- GI50 (SF-295): 13.4 µM (inactive)
- GI50 (SF-539): 1.8 µM (inactive)
- GI50 (SK-MEL-28): 1.76 µM (inactive)
- GI50 (SK-MEL-2): 2.5 µM (inactive)
- GI50 (SK-MEL-5): 3.11 µM (inactive)
- GI50 (SK-OV-3): 16.6 µM (inactive)
- GI50 (SN12C): 1.53 µM (inactive)
- GI50 (SNB-19): 12.2 µM (inactive)
- GI50 (SNB-75): 6.22 µM (inactive)
- GI50 (SW-620): 1.58 µM (inactive)
- GI50 (T47D): 3.77 µM (inactive)
- GI50 (TK-10): 1.96 µM (inactive)
- GI50 (U-251): 1.5 µM (inactive)
- GI50 (UACC-257): 2.03 µM (inactive)
- GI50 (UACC-62): 1.61 µM (inactive)
- GI50 (UO-31): 1.71 µM (inactive)

SMILES: Fc1ccc(C(OCCN2CCC3CCC(C2)N3CCCc2ccccc2)c2ccc(F)cc2)cc1 (stereo not drawn)
- GI50 (786-0): 2.41 µM (inactive)
- GI50 (A498): 3.02 µM (inactive)
- GI50 (A549): 6.15 µM (inactive)
- GI50 (ACHN): 5.6 µM (inactive)
- GI50 (BT-549): 8.89 µM (inactive)
- GI50 (CAKI-1): 4.86 µM (inactive)
- GI50 (CCRF-CEM): 3.01 µM (inactive)
- GI50 (COLO 205): 1.37 µM (inactive)
- GI50 (DU-145): 8 µM (inactive)
- GI50 (EKVX): 3.82 µM (inactive)
- GI50 (HCC 2998): 2.08 µM (inactive)
- GI50 (HCT-116): 2.65 µM (inactive)
- GI50 (HCT-15): 3.76 µM
- GI50 (HL-60): 2.12 µM (inactive)
- GI50 (HOP-62): 7.38 µM (inactive)
- GI50 (HOP-92): 5.45 µM (inactive)
- GI50 (HT-29): 3.3 µM (inactive)
- GI50 (Hs-578T): 4.58 µM (inactive)
- GI50 (IGROV-1): 4.97 µM (inactive)
- GI50 (K562): 2.05 µM (inactive)
- GI50 (KM12): 3.11 µM (inactive)
- GI50 (LOX IMVI): 3.83 µM (inactive)
- GI50 (M14): 2.1 µM (inactive)
- GI50 (MCF7): 3.74 µM (inactive)
- GI50 (MDA-MB-231): 3.87 µM (inactive)
- GI50 (MDA-MB-435): 2.61 µM (inactive)
- GI50 (MDA-N): 3.27 µM (inactive)
- GI50 (MOLT-4): 2.58 µM (inactive)
- GI50 (Malme-3M): 2.29 µM (inactive)
- GI50 (NCI-H226): 3.94 µM (inactive)
- GI50 (NCI-H23): 4.1 µM (inactive)
- GI50 (NCI-H460): 2.58 µM (inactive)
- GI50 (NCI-H522): 3.35 µM (inactive)
- GI50 (NCI/ADR-RES): 3.62 µM (inactive)
- GI50 (OVCAR-3): 3.55 µM (inactive)
- GI50 (OVCAR-4): 5.28 µM (inactive)
- GI50 (OVCAR-5): 6.71 µM (inactive)
- GI50 (OVCAR-8): 2.24 µM (inactive)
- GI50 (PC-3): 2.98 µM (inactive)
- GI50 (RPMI-8226): 2.48 µM (inactive)
- GI50 (SF-268): 6.62 µM (inactive)
- GI50 (SF-295): 2.77 µM (inactive)
- GI50 (SF-539): 1.35 µM (inactive)
- GI50 (SK-MEL-28): 2.52 µM (inactive)
- GI50 (SK-MEL-2): 3.48 µM (inactive)
- GI50 (SK-MEL-5): 1.76 µM (inactive)
- GI50 (SK-OV-3): 10.4 µM (inactive)
- GI50 (SN12C): 3.57 µM (inactive)
- GI50 (SNB-19): 10.1 µM (inactive)
- GI50 (SNB-75): 2.4 µM (inactive)
- GI50 (SW-620): 3.64 µM (inactive)
- GI50 (T47D): 2.16 µM (inactive)
- GI50 (TK-10): 4.43 µM (inactive)
- GI50 (U-251): 4.33 µM (inactive)
- GI50 (UACC-257): 2.92 µM (inactive)
- GI50 (UACC-62): 5.75 µM (inactive)
- GI50 (UO-31): 5.56 µM (inactive)
